Consider one molecule from patent US20230277680A1, “CONJUGATE OF A SINGLE DOMAIN ANTIBODY, A SAPONIN AND AN EFFECTOR MOLECULE, PHARMACEUTICAL COMPOSITION COMPRISING THE SAME, THERAPEUTIC USE OF SAID PHARMACEUTICAL COMPOSITION” (SAPREME TECHNOLOGIES B.V., priority 2020, published 2023).

In one assay the test system is A431 cells. Briefly: Cell viability (MTS) assay, cell killing. Type of assay: cell-based, human. As to conditions: read-out: [SO1861] IC50 cell killing, + fixed 10 μM cetuximab-saporin, calculated on concentration SO1861. Here is the method: (§1) After treatment the cells were incubated for 72 hr at 37° C. before the cell viability was determined by a MTS-assay, performed according to the manufacturer's instruction (CellTiter 96® AQueous One Solution Cell Proliferation Assay, Promega). Briefly, the MTS solution was diluted 20× in DMEM without phenol red (PAN-Biotech GmbH) supplemented with 10% FBS. The cells were washed once with 200 μL/PBS well, after which 100 μL diluted MTS solution was added/well. The plate was incubated for approximately 20-30 minutes at 37° C. Subsequently, the OD at 492 nm was measured on a Thermo Scientific Multiskan FC plate reader (Thermo Scientific). For quantification the background signal of ‘medium only’ wells was subtracted from all other wells, before the cell viability percentage of treated/untreated cells was calculated, by dividing the background corrected signal of treated wells over the background corrected signal of the untreated wells (×100). […]
(§2) After treatment the cells were incubated for 72 hr at 37° C. before the cell viability was determined by a MTS-assay, performed according to the manufacturer's instruction (CellTiter 96® AQueous One Solution Cell Proliferation Assay, Promega). […] Subsequently, the optical density at 492 nm was measured on a Thermo Scientific Multiskan FC plate reader (Thermo Scientific). […]

Another assay concerns SK-BR-3 cells. Description: Cell viability (MTS) assay, cell killing. Type of assay: cell-based, human. The following applies: read-out: [SO1861] IC50 cell killing; SKBR3; + fixed 1.5 μM EGF-dianthin. Here is the method:
as §1, §2

pIC50: −log10 of the molar value.

As to `CC(=O)O[C@H]1[C@H](O[C@@H]2OC[C@@H](O)[C@H](O)[C@H]2O)[C@@H](O)[C@H](O[C@@H]2[C@H](O)[C@@H](O[C@@H]3O[C@@H](C)[C@H](O[C@@H]4OC[C@@H](O)[C@H](O[C@@H]5OC[C@@H](O)[C@H](O)[C@H]5O)[C@H]4O)[C@@H](O)[C@H]3O)[C@H](OC(=O)[C@]34CCC(C)(C)C[C@H]3C3=CC[C@@H]5[C@@]6(C)CC[C@H](O[C@H]7O[C@H](C(=O)O)[C@@H](O)[C@H](O[C@@H]8OC[C@@H](O)[C@H](O)[C@H]8O)[C@H]7O[C@@H]7O[C@H](CO)[C@H](O)[C@H](O)[C@H]7O)[C@@](C)(C=O)[C@@H]6CC[C@@]5(C)[C@]3(C)C[C@H]4O)O[C@@H]2C)O[C@@H]1C` [SO1861], the pIC50 was 6.22 in the assay on A431 cells and 6.10 in the assay on SK-BR-3 cells.
